Measured values published in BindingDB's records for PubMed 9655904 (Parke-Davis Pharmaceutical Research, 1998).

Target: Fibroblast growth factor receptor 1 (Homo sapiens, UniProt P11362)
Sequence (P11362 whole entry): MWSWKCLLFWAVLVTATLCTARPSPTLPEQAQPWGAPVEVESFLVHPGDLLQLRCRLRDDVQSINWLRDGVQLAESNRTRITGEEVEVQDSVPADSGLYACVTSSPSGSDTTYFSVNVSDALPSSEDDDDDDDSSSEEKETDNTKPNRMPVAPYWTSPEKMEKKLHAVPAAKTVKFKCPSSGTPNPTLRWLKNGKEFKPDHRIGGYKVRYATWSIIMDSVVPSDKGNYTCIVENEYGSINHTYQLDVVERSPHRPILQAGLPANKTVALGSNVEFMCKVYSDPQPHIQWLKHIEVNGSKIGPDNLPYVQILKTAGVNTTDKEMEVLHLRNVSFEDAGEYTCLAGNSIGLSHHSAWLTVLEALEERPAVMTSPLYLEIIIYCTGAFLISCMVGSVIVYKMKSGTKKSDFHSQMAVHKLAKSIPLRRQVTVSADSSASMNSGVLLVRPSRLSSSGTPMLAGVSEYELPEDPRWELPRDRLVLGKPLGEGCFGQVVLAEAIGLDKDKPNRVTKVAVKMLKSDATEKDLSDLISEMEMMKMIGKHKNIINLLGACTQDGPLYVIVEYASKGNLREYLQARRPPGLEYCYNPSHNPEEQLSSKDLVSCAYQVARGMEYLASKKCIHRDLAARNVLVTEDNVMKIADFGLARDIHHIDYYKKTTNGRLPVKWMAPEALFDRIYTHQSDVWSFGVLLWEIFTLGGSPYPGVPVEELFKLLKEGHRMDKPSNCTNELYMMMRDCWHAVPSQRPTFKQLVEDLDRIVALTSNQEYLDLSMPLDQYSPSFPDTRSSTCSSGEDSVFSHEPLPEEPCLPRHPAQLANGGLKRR

COc1cc(OC)cc(-c2cc3cnc(N)nc3nc2NC(=O)NC(C)(C)C)c1 [6-arylpyrido[2,3-d]pyrimidine deriv. 25] was tested, and the Ki was 0.0452 µM.
